Reference: patent US12071411B2, “Inhibitors of HIF-2α and methods of use thereof” (ARCUS BIOSCIENCES, INC., priority 2021, dated 2024)

Legend:
[1] = molecular target: T1, HIF-2α (Homo sapiens, UniProt Q99814); assay: HIF-2α Luciferase Reporter Assay (serum free) in HIF-Luc-786-0 cells; type: cell-based; details: Opti-MEM, 786-0 reporter cells, 20 hours incubation
Protocol: (§1) Generation of HIF-2α Luciferase 786-0 Cell Line:
(§2) Stable cell lines were generated by transducing 786-0 cells (ATCC, CRL-1932) with Cignal Lenti HIF Luc Reporter lentivirus (CLS-007L, Qiagen) according to the manufacturer's guidelines. In brief, 0.3×10^6 786-0 cells were transduced with lentivirus at a multiplicity of infection (MOI) of 25 for 24 hours. After transduction, cells were replenished with fresh RPMI 1640 Medium (Cat. No. 11875085, Thermo Fisher) supplemented with 10% FBS (Cat. No. A3160502, Gibco), 2 mM GlutaMAX™ (Cat. No. 35050-061, Invitrogen) and 100 units of penicillin and 100 μg of streptomycin/mL (Cat. No 15070063, Thermo Fisher) for another 24 hours. Antibiotic selection was performed in cell media containing 4 μg/mL of puromycin. After 7 days of antibiotic selection, stable pools of surviving cells were expanded and used in a luciferase reporter assay.
HIF-2α Luciferase Reporter Assay (Serum Free):
On day one, 20 uL of HIF-Luc-786-0 cells in Opti-MEM™ (Cat. No. 31985088, Thermo Fisher) were seeded into each well of a 384 well white opaque plate (Corning 3570) and incubated at 37° C. and 5% CO2. Twenty microliters of 2× test compounds in Opti-MEM™ were added to cells after 4 hours of incubation. Final assay conditions comprised 20,000 cells per well in 1% DMSO with test compound concentrations ranging from 50 uM to 0 uM. After 20 hours incubation at 37° C. and 5% CO2, luciferase activity was determined using ONE-Glo™ Luciferase Assay Reagent (E6110, Promega) following the manufacture's recommended procedure. Briefly, 40 uL of ONE-Glo™ luciferase reagents were added to each well and luciferase signals were measured using an Envision 2102 Multilabel Reader. Percentage maximum activity in each test well was calculated based on DMSO (maximum activity) and no cell control wells (baseline activity). The IC50 values of the test compounds were determined from compound dose response curves fitted using a standard four parameter fit equation.

[2] = molecular target: T1, HIF-2α; assay: HIF-2α Luciferase Reporter Assay (serum), HRE-luciferase 786-0 cells in 100% human serum; type: cell-based; details: for IC50: 100% human serum, 786-0 reporter cells, overnight incubation, read-out: Serum Potency; for Serum Shift (approximate): ratio of IC50 in 100% serum to IC50 in serum free conditions
Protocol: as §1, §2
HIF-2α Luciferase Reporter Assay (Serum):
An HRE-luciferase stable reporter 786-0 cell line was maintained in active culture using RPMI 1640 (GIBCO) media supplemented with 1% penicillin-streptomycin, 1% GlutaMAX™, 10% FBS-One Shot (GIBCO) and 4 ug/ml of puromycin (Invitrogen). On the day of the assay, cells were harvested using StemPro™ Accutase™ cell dissociation reagent (GIBCO) and resuspended at 1.5 million cells per milliliter in Opti-MEM™ (GIBCO). 20 ul/well of the resuspended cells were dispensed into a 384 white tissue culture-treated microplate (Corning) and allowed to incubate at 37° C., 5% CO2 for 3 hours. Compounds were prepared by dispensing 0.8 ul of compound in 100% DMSO into a Greiner plate containing 40 ul/well of 100% human serum (Bioreclamation IVT). After 3 hours, media was removed via centrifugation at 500 RPM for 30 seconds and 30 ul/well of compound diluted in human serum was added. The plate was incubated overnight at 37° C., 5% CO2. The following day, ONE-Glo™ was prepared per vendors instructions. The cell plate was removed from the incubator and the human serum was removed from the plate using centrifugation at 500 RPM for 30 seconds. Following the removal of human serum, 40 ul/well of room temperature Opti-MEM™ was added to the plate and allowed to equilibrate to room temperature for 2 hours. 40 ul/well of ONE-Glo™ reagent was added and allowed to incubate for 10 minutes before reading the luminescence signal on the Envision (PerkinElmer). Data was analyzed using 4-parameter logistic equation to generate IC50.

T1 sequence (Q99814 whole entry): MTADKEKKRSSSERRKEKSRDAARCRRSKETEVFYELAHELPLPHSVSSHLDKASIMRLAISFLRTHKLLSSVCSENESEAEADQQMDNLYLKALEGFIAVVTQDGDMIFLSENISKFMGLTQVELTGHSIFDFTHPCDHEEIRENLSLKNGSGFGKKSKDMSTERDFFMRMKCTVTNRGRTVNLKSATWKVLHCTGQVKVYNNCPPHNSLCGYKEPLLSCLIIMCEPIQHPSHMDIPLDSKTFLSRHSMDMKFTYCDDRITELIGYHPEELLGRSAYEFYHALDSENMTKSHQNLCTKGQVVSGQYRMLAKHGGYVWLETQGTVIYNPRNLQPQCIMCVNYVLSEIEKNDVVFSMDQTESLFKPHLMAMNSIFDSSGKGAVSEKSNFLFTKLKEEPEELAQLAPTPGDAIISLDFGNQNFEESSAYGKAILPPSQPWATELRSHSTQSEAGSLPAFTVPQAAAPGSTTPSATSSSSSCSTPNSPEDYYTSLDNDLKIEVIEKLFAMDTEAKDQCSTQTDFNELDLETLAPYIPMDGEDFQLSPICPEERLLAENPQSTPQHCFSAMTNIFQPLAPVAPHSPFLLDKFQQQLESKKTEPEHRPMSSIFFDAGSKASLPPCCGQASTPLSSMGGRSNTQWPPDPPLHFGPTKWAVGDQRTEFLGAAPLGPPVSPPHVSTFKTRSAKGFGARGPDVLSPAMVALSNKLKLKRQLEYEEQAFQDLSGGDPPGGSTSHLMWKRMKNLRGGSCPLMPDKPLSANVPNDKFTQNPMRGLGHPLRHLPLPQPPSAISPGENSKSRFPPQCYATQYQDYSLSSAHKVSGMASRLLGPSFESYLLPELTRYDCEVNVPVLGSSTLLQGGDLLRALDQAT

| SMILES | IC50 [1] [µM] | IC50 [2] [µM] | Serum Shift (approximate) [2] |
| --- | --- | --- | --- |
| O[C@H]1c2c(C(F)(F)F)nn(C3CCC(F)(F)C3)c2CC1(F)F (mixture of isomers) [Example 54, (4S)-1-(3,3-difluorocyclopentyl)-5,5-difluoro-3-(trifluoromethyl)-4,6-dihydrocyclopenta[c]pyrazol-4-ol] | 0.1 to 1 | > 1 | 5 |
| O[C@H]1c2c(C(F)(F)F)nn([C@H]3CC[C@@H](F)[C@@H](F)C3)c2CC1(F)F (racemic) [91 DIAST-2, (4S)-1-[(rel-1S,3S,4R)-3,4-difluorocyclohexyl]-5,5-difluoro-3-(trifluoromethyl)-4,6-dihydrocyclopenta[c]pyrazol-4-ol] | < 0.1 | > 1 | 9 |
| CO[C@H]1C[C@@H](n2nc(C(F)(F)F)c3c2CC(F)(F)[C@H]3O)CCC1(F)F (racemic) [Example 109, (4S)-1-[(1S,3S)-4,4-difluoro-3-methoxycyclohexyl]-5,5-difluoro-3-(trifluoromethyl)-1H,4H,5H,6H-cyclopenta[c]pyrazol-4-ol and (4S)-1-[(1R,3R)-4,4-difluoro-3-methoxycyclohexyl]-5,5-difluoro-3-(trifluoromethyl)-1H,4H,5H,6H-cyclopenta[c]pyrazol-4-ol] | 0.1 to 1 | 0.1 to 1 | 4 |
| O[C@H]1c2c(C(F)(F)F)nn(C3CC[C@H](F)[C@H](F)C3)c2CC1(F)F (single isomer, unassigned) [72/73 DIAST-2] | < 0.1 | 0.1 to 1 | 3 |
| O[C@H]1c2c(C(F)(F)F)nn([C@H]3CCO[C@@H](C(F)(F)F)C3)c2CC1(F)F (single isomer, unassigned) [94/95 DIAST-1] | < 0.1 | > 1 | 17 |
| O[C@H]1c2c(C(F)(F)F)nn(C3CCO[C@H](C(F)(F)F)C3)c2CC1(F)F (single isomer, unassigned) [94/95 DIAST-2] | < 0.1 | > 1 | 23 |
| O[C@H]1c2c(C(F)(F)F)nn([C@@H]3CC[C@@H](F)C[C@H]3F)c2CC1(F)F (single isomer, unassigned) [97/98 DIAST-1] | 0.1 to 1 | > 1 | 23 |
| O[C@H]1c2c(C(F)(F)F)nn([C@H]3C[C@@H]4[C@H](C3)C4(F)F)c2CC1(F)F (single isomer, unassigned) [125/126 DIAST-1] | 0.1 to 1 | > 1 | 9 |
| O[C@H]1c2c(C(F)(F)F)nn(CCCOC(F)(F)F)c2[C@@H](F)CC1(F)F (single isomer, unassigned) [129/130 DIAST-1] | 0.1 to 1 | > 1 | 18 |
| O[C@H]1c2c(C(F)(F)F)nn(CCCOC(F)(F)F)c2[C@H](F)CC1(F)F (single isomer, unassigned) [129/130 DIAST-2] | 0.1 to 1 | > 1 | 17 |
| O[C@H]1c2c(C(F)(F)F)nn([C@H]3CCCC(F)(F)C3)c2[C@@H](F)[C@H]1F (single isomer, unassigned) [136/137 DIAST-1] | < 0.1 | > 1 | 4 |
| O[C@H]1c2c(C(F)(F)F)nn(-c3ccc(C(F)(F)F)nc3)c2CC1(F)F [Example 68, (4S)-5,5-difluoro-3-(trifluoromethyl)-1-[6-(trifluoromethyl)pyridin-3-yl]-4,6-dihydrocyclopenta[c]pyrazol-4-ol] | < 0.1 | – | – |

Results, then the compound that gave them:

| IC50 [1] [µM] | IC50 [2] [µM] | Serum Shift (approximate) [2] | SMILES |
| --- | --- | --- | --- |
| < 0.1 | 0.1 to 1 | 6 | O[C@H]1c2c(C(F)(F)F)nn([C@H]3C[C@@H](F)[C@@H](F)[C@@H](F)C3)c2CC1(F)F (mixture of isomers) [Example 88, (4S)-5,5-difluoro-1-[(3R,5S)-3,4,5-trifluorocyclohexyl]-3-(trifluoromethyl)-4,6-dihydrocyclopenta[c]pyrazol-4-ol] |
| < 0.1 | 0.1 to 1 | 6 | O[C@H]1c2c(C(F)(F)F)nn([C@H]3CCC[C@@H](F)C3)c2CC1(F)F (racemic) [90 DIAST-1, (4S)-5,5-difluoro-1-[(rel-1S,3R)-3-fluorocyclohexyl]-3-(trifluoromethyl)-4,6-dihydrocyclopenta[c]pyrazol-4-ol] |
| < 0.1 | > 1 | 19 | O[C@H]1c2c(C(F)(F)F)nn(C3CCC[C@H](OC(F)F)C3)c2CC1(F)F (mixture of isomers) [Example 108, (4S)-1-[(1S,3S)-3-(difluoromethoxy)cyclohexyl]-5,5-difluoro-3-(trifluoromethyl)-1H,4H,5H,6H-cyclopenta[c]pyrazol-4-ol and (4S)-1-[(1R,3R)-3-(difluoromethoxy)cyclohexyl]-5,5-difluoro-3-(trifluoromethyl)-1H,4H,5H,6H-cyclopenta[c]pyrazol-4-ol] |
| < 0.1 | > 1 | 225 | O[C@H]1c2c(C(F)(F)F)nn([C@H]3CC[C@H](OC(F)F)C3)c2CC1(F)F (racemic) [Example 110, (4S)-1-[(1R,3R)-3-(difluoromethoxy)cyclopentyl]-5,5-difluoro-3-(trifluoromethyl)-1H,4H,5H,6H-cyclopenta[c]pyrazol-4-ol and (4S)-1-[(1S,3S)-3-(difluoromethoxy)cyclopentyl]-5,5-difluoro-3-(trifluoromethyl)-1H,4H,5H,6H-cyclopenta[c]pyrazol-4-ol] |
| < 0.1 | > 1 | 9 | CO[C@H]1C[C@H](n2nc(C(F)(F)F)c3c2CC(F)(F)[C@H]3O)CCC1(F)F (racemic) [Example 111, (4S)-1-[(1R,3S)-4,4-difluoro-3-methoxycyclohexyl]-5,5-difluoro-3-(trifluoromethyl)-1H,4H,5H,6H-cyclopenta[c]pyrazol-4-ol and (4S)-1-[(1S,3R)-4,4-difluoro-3-methoxycyclohexyl]-5,5-difluoro-3-(trifluoromethyl)-1H,4H,5H,6H-cyclopenta[c]pyrazol-4-ol] |
| < 0.1 | > 1 | 17 | O[C@H]1c2c(C(F)(F)F)nn([C@@H]3CCC[C@H](OC(F)F)C3)c2CC1(F)F (racemic) [Example 112, (4S)-1-[(1R,3S)-3-(difluoromethoxy)cyclohexyl]-5,5-difluoro-3-(trifluoromethyl)-1H,4H,5H,6H-cyclopenta[c]pyrazol-4-ol and (4S)-1-[(1S,3R)-3-(difluoromethoxy)cyclohexyl]-5,5-difluoro-3-(trifluoromethyl)-1H,4H,5H,6H-cyclopenta[c]pyrazol-4-ol] |
| 0.1 to 1 | > 1 | 10 | O[C@H]1c2c(C(F)(F)F)nn(C[C@H](F)C3CC3)c2CCC1(F)F (single isomer, unassigned) [26/27 DIAST-2] |
| < 0.1 | 0.1 to 1 | 8 | O[C@H]1c2c(C(F)(F)F)nn([C@@H]3CC[C@@H](F)[C@@H](F)C3)c2CC1(F)F (single isomer, unassigned) [72/73 DIAST-1] |
| 0.1 to 1 | > 1 | 5 | O[C@H]1c2c(C(F)(F)F)nn([C@@H]3C[C@@H]4[C@H](C3)C4(F)F)c2CC1(F)F (single isomer, unassigned) [125/126 DIAST-2] |
| > 1 | – | – | O[C@H]1c2c(C(F)(F)F)nn([C@H]3C[C@@H](COC(F)F)C3)c2CCC1(F)F [Example 105, (4S)-1-[3-(difluoromethoxymethyl)cyclobutyl]-5,5-difluoro-3-(trifluoromethyl)-6,7-dihydro-4H-indazol-4-ol] |
